The values that follow come from US20060093673A1, “Controlled release of anti-arrhythmic agents” (priority 2003, published 2006).

By aqueous solubility is commonly meant the dissolved amount per volume that the medium holds.

In brackets after ≈: the same amount, converted by molar mass. Where a name gives a salt, the structure may show the parent alone.

A short description of data set [1]: In-vitro release from FocalSeal-L gel disks, flow-through dissolution tank. Type of data set: physicochemical. The note with it: FocalSeal-L with 1% dexamethasone and 1% amiodarone HCl; 2 mm gel disc. The source says: Method: […] The gel disks were then placed in a flow-through dissolution tank and gels were sampled over time. Residual drug was extracted from the gel disks with methanol and drug was quantitated by HPLC.

Data set [2] is described as follows: Modulus and pH of FOCALSEAL-L as a function of drug loading. To be noted: loaded into the FOCALSEAL-L formulation.
The conditions of data set [3]: cited from earlier work.

Consider `CCCCc1oc2ccccc2c1C(=O)c1cc(I)c(OCCN(CC)CC)c(I)c1` [amiodarone, Amiodarone hydrochloride], for which the “time over which amiodarone HCl is released in-vitro” value in data set [1] fell in the range of 11 to 12 days. Also, in data set [2], the “loading level that maintains acceptable pH and modulus values” was “about 1.5%”.

Consider `C[C@@H]1C[C@H]2[C@@H]3CCC4=CC(=O)C=C[C@]4(C)[C@@]3(F)[C@@H](O)C[C@]2(C)[C@@]1(O)C(=O)CO` [dexamethasone free base, dexamethasone], for which the aqueous solubility in data set [3] was 10000 µg/mL (≈ 25.5 mM).
